Experimental data: publication PMC8119466, “A screen of FDA-approved drugs identifies inhibitors of protein tyrosine phosphatase 4A3 (PTP4A3 or PRL-3)” (Scientific Reports, 2021)
Structures can show the parent of a compound that is named as a salt. Where two headings read alike, the source gives them in different places.

Columns and labels:
Type in all cases: biochemical
[1] = target: T1, recombinant PRL-1 (Homo sapiens, UniProt Q93096); assay: In vitro phosphatase assay (DiFMUP hydrolysis), PRL-1
T1 construct: 6xHis (N, cleaved yes); made in house; host or cells: E. coli One Shot BL21 Star
T1 sequence (Q93096 1-173): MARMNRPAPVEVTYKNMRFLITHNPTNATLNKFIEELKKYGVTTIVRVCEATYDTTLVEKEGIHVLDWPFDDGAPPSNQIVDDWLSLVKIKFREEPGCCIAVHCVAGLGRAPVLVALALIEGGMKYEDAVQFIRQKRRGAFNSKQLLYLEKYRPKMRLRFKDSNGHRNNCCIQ
Procedure: Briefly, protein was diluted in reaction buffer and allowed to incubate at 4 °C for 20 min to allow for full reduction of the active site. DiFMUP, drug, and protein were added, and plates were incubated for 20 min at room temperature. Fluorescence intensities were measured on a Cytation 5 plate reader (Biotek) at an EX:360 nm and EM:460 nm. […] Inhibition selectivity for PRLs over a panel of other phosphatases was determined using PhosphataseProfiler (Eurofins, Cat # PP260).

[2] = target: T2, recombinant PRL-2 (Homo sapiens, UniProt Q12974); assay: In vitro phosphatase assay (DiFMUP hydrolysis), PRL-2;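 also: PRL-2 activity read as DiFMUP hydrolysis after 20 min at room temperature with drug, enzyme first pre-reduced at 4 °C for 20 min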
T2 construct: 6xHis (N, cleaved yes); made in house; host or cells: E. coli One Shot BL21 Star
T2 sequence (Q12974 1-167): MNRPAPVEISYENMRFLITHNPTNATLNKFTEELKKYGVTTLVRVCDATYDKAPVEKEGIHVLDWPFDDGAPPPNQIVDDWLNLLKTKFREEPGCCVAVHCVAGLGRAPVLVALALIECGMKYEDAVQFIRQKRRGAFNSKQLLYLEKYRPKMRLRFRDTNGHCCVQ

[3] = target: T3, recombinant PRL-3 (Homo sapiens, UniProt O75365); assay: In vitro phosphatase assay (DiFMUP hydrolysis), PRL-3
T3 construct: 6xHis (N, cleaved yes); made in house; host or cells: E. coli One Shot BL21 Star

[4] = FDA-approved drug screen, compared to DMSO
[5] = FDA-approved drug screen, activity compared to DMSO
[6] = FDA-approved drug screen, compared to DMSO, listed as Eltrombopag

T3 sequence (O75365 whole entry): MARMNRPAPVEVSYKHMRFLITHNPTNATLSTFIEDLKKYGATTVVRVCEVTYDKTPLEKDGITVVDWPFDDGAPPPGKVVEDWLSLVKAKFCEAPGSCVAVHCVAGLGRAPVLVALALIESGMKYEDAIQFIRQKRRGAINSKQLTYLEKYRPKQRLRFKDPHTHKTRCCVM

SMILES | % Phosphatase Activity (compared to DMSO) PRL-1 [1, 4] | % Phosphatase Activity (compared to DMSO) PRL-2 [2, 4] | % Phosphatase Activity (compared to DMSO) PRL-3 [3, 4] | further results
CC(C)(C)c1nc(-c2cccc(NS(=O)(=O)c3c(F)cccc3F)c2F)c(-c2ccnc(N)n2)s1 [Dabrafenib (GSK2118436)] | 81% | 82% | 86% | –
CCOC(=O)c1ccc(O)cc1 [Ethylparaben] | 105% | 100% | 92% | –
Cl.O=C1Cc2cc(CCN3CCN(c4nsc5ccccc45)CC3)c(Cl)cc2N1 [Ziprasidone HCl] | – | – | – | % Phosphatase Activity (compared to DMSO) PRL-1 [1, 5]: 91%; % Phosphatase Activity (compared to DMSO) PRL-2 [2, 5]: 91%; % Phosphatase Activity (compared to DMSO) PRL-3 [3, 5]: 80%
CCS(=O)(=O)N1CCN(c2ccc(Nc3ncc(C(N)=O)c(NC4CC4)n3)cc2)CC1 [Cerdulatinib (PRT062070, PRT2070)] | 95% | 82% | 95% | –
CNC(=O)c1cc(Oc2ccc(NC(=O)Nc3ccc(Cl)c(C(F)(F)F)c3)cc2)ccn1 [Sorafenib] | – | – | – | % Phosphatase Activity (compared to DMSO) PRL-1 [1, 5]: 91%; % Phosphatase Activity (compared to DMSO) PRL-2 [2, 5]: 80%; % Phosphatase Activity (compared to DMSO) PRL-3 [3, 5]: 95%
CN(C)C(=O)C(CCN1CCC(O)(c2ccc(Cl)cc2)CC1)(c1ccccc1)c1ccccc1 [Loperamide HCl] | 105% | 99% | 81% | –
C[C@H]1COc2c(N3CCN(C)CC3)c(F)cc3c(=O)c(C(=O)O)cn1c23 [Levofloxacin hydrate] | 322% | 306% | 316% | –
C=CC[C@]1(O)CC[C@H]2[C@@H]3CCC4=CC(=O)CCC4=C3C=C[C@@]21C [Altrenogest] | 192% | 178% | 156% | –
CN1CCN(c2c(F)cc3c(=O)c(C(=O)O)cn4c3c2OCN4C)CC1 [Marbofloxacin] | 345% | 386% | 180% | –
CCOc1cc2ncc(C#N)c(Nc3ccc(F)c(Cl)c3)c2cc1NC(=O)/C=C/CN(C)C [Pelitinib (EKB-569)] | 111% | 120% | 97% | –
C[C@@](Cc1ccc(O)c(O)c1)(NN)C(=O)O [Carbidopa] | 68% | 92% | 94% | –
CC1=C(C(=O)OC(C)C)C(c2cccc([N+](=O)[O-])c2)C(C(=O)OC2CN(C(c3ccccc3)c3ccccc3)C2)=C(N)N1 (stereo not drawn) [Azelnidipine] | 93% | 99% | 95% | –
Cc1onc(-c2ccccc2)c1C(=O)N[C@@H]1C(=O)N2[C@@H]1SC(C)(C)[C@@H]2C(=O)[O-].O.[Na+] [Oxacillin sodium monohydrate] | 98% | 90% | 83% | –
Clc1ccc(COC(Cn2ccnc2)c2ccc(Cl)cc2Cl)cc1 (stereo not drawn) [Econazole nitrate] | 107% | 103% | 93% | –
Nc1ccn([C@@H]2O[C@H](CO)[C@@H](O)C2(F)F)c(=O)n1 [Gemcitabine] | 109% | 100% | 77% | –
Cc1nc2c([nH]1)-c1ccccc1N(C(=O)c1ccc(NC(=O)c3ccccc3-c3ccccc3)cc1)CC2.Cl [Conivaptan HCl] | 95% | 106% | 85% | –
N=C(N)N/N=C/c1c(Cl)cccc1Cl [Guanabenz Acetate] | 94% | 108% | 68% | –
Cn1c(=O)cc(N2CCC[C@@H](N)C2)n(Cc2cc(F)ccc2C#N)c1=O [Trelagliptin] | – | – | – | % Phosphatase Activity (compared to DMSO) PRL-1 [1, 5]: 106%; % Phosphatase Activity (compared to DMSO) PRL-2 [2, 5]: 76%; % Phosphatase Activity (compared to DMSO) PRL-3 [3, 5]: 107%
CC(=O)OCC(=O)[C@@]1(O)CC[C@H]2[C@@H]3CCC4=CC(=O)C=C[C@]4(C)[C@H]3[C@@H](O)C[C@@]21C [Prednisolone Acetate] | 105% | 102% | 80% | –

SMILES | % Phosphatase Activity (compared to DMSO) PRL-1 [1, 4] | % Phosphatase Activity (compared to DMSO) PRL-2 [2, 4] | % Phosphatase Activity (compared to DMSO) PRL-3 [3, 4] | further results
C=C1c2cccc(O)c2C(=O)C2=C(O)[C@]3(O)C(=O)C(C(N)=O)=C(O)[C@@H](N(C)C)[C@@H]3[C@@H](O)[C@H]12 [Methacycline HCl] | 82% | 65% | 83% | –
CC1=NN(c2ccc(C)c(C)c2)C(=O)/C1=N\Nc1cccc(-c2cccc(C(=O)O)c2)c1O [Eltromobag, reference compound] | – | – | – | IC50 ([1]; 2.5 µM protein, DiFMUP at KM, read-out: Calculated IC50, PRL-1 phosphatase activity): 56 ± 10 µM; % Phosphatase Activity (compared to DMSO) PRL-1 [1, 6]: 57%; IC50 ([2]; 2.5 µM protein, DiFMUP at KM, read-out: Calculated IC50, PRL-2 phosphatase activity): > 100 µM; % Phosphatase Activity (compared to DMSO) PRL-2 [2, 6]: 68%; IC50 ([3]; 2.5 µM protein, DiFMUP at KM, read-out: Calculated IC50, PRL-3 phosphatase activity): 26 ± 11 µM; % Phosphatase Activity (compared to DMSO) PRL-3 [3, 6]: 66%
O=C1CN(/N=C/c2ccc([N+](=O)[O-])o2)C(=O)N1 [Nitrofurantoin] | – | – | – | % Phosphatase Activity (compared to DMSO) PRL-1 [1]: 76%; % Phosphatase Activity (compared to DMSO) PRL-2 [2]: 63%; % Phosphatase Activity (compared to DMSO) PRL-3 [3]: 67%
CCCCCCCCCCCC[N+](C)(C)CCOc1ccccc1 [Domiphen Bromide] | 106% | 104% | 84% | –
COc1ccc(C[C@@H](C)NC[C@H](O)c2ccc(O)c(NC=O)c2)cc1.COc1ccc(C[C@@H](C)NC[C@H](O)c2ccc(O)c(NC=O)c2)cc1.O=C(O)/C=C/C(=O)O [Formoterol Hemifumarate] | 95% | 106% | 91% | –
COc1ccc(/C=C/C(=O)Nc2ccccc2C(=O)O)cc1OC [Tranilast] | – | – | – | % Phosphatase Activity (compared to DMSO) PRL-1 [1, 5]: 88%; % Phosphatase Activity (compared to DMSO) PRL-2 [2, 5]: 73%; % Phosphatase Activity (compared to DMSO) PRL-3 [3, 5]: 82%
Nc1nc(O)c2ncn(COC(CO)CO)c2n1 [Ganciclovir] | 90% | 98% | 99% | –
CN(C)Cc1c(C(=O)NCCOc2ccc(C(=O)NO)cc2)oc2ccccc12 [PCI-24781 (Abexinostat)] | 100% | 96% | 86% | –
CN(C)CC/C=C1/c2ccccc2Sc2ccc(Cl)cc21 [Chlorprothixene] | 98% | 107% | 93% | –
C[C@@H]1CC[C@H]2[C@@H](C)C(=O)O[C@@H]3O[C@@]4(C)CC[C@@H]1[C@]32OO4 [Artemisinin] | 100% | 90% | 80% | –
COc1ccc(C(=O)N2CCCC2=O)cc1 [Aniracetam] | 102% | 104% | 75% | –
C[C@]12CC[C@@H]3c4ccc(O)cc4CC[C@H]3[C@@H]1C[C@@H](O)[C@@H]2O [Estriol] | 117% | 111% | 79% | –
C[N+]1(C)[C@@H]2CC[C@H]1C[C@@H](OC(=O)C(O)c1ccccc1)C2 (stereo partly drawn) [Homatropine Methylbromide] | 107% | 100% | 95% | –
O=C(O)CCCc1ccccc1 [Sodium Phenylbutyrate] | – | – | – | % Phosphatase Activity (compared to DMSO) PRL-1 [1, 5]: 103%; % Phosphatase Activity (compared to DMSO) PRL-2 [2, 5]: 110%; % Phosphatase Activity (compared to DMSO) PRL-3 [3, 5]: 82%
C#Cc1cccc(Nc2ncnc3cc(OCCOC)c(OCCOC)cc23)c1.Cl [Erlotinib HCl (OSI-744)] | 110% | 128% | 87% | –
COc1cc(OC)c(/C=C/S(=O)(=O)Cc2ccc(OC)c(NCC(=O)O)c2)c(OC)c1 [Rigosertib (ON-01910)] | 95% | 86% | 78% | –
Cc1nc2ccc(CN(C)c3ccc(C(=O)N[C@@H](CCC(=O)O)C(=O)O)s3)cc2c(=O)[nH]1 [Raltitrexed] | 80% | 71% | 71% | –
OCCOCCN1CCN(C2=Nc3ccccc3Sc3ccccc32)CC1 [Quetiapine Fumarate] | – | – | – | % Phosphatase Activity (compared to DMSO) PRL-1 [1]: 80%; % Phosphatase Activity (compared to DMSO) PRL-2 [2]: 87%; % Phosphatase Activity (compared to DMSO) PRL-3 [3]: 93%
